“And” between values parts separate entries of the source, which are not always exact repeats. Equal values may be shown once. Read-outs that look alike come from different tables or passages of the source.
Experiments:
NL63-CoV 3CL^pro = NL63-CoV 3CL^pro (Human coronavirus NL63, UniProt P0C6X5); type: biochemical
HKU5-CoV 3CL^pro = HKU5-CoV 3CL^pro (Bat coronavirus HKU5, UniProt P0C6W4); type: biochemical; conditions: for Initial Velocity: triplicate, listed as Compound F2
MHV-CoV 3CL^pro = MHV-CoV 3CL^pro (Murine coronavirus, UniProt P0C6X9); type: biochemical
OC43-CoV 3CL^pro = OC43-CoV 3CL^pro (Human coronavirus OC43, UniProt P0C6X6); type: biochemical
IBV-CoV 3CL^pro = IBV-CoV 3CL^pro (Avian infectious bronchitis virus, UniProt P0C6Y1); assay: biochemical; conditions: for Initial Velocity: triplicate, listed as Compound F2
SARS-CoV-2 = assay: microbe, parasite or virus in culture; type: cell-based; conditions: Severe acute respiratory syndrome coronavirus 2, Vero C1008; N=3; read-out: EC50 ± Std. Dev
CYP2B6 = target: T1, CYP2B6 (Homo sapiens, UniProt P20813); assay: Reversible CYP inhibition in human liver microsomes; type: in vitro ADME; conditions: for activity at 0.1 µM: pH 7.4, CYP 2B6, 0.1 µM; for activity at 0.1 µM / activity at 0.214 µM / activity at 0.979 µM / activity at 2.09 µM / activity at 4.48 µM / activity at 20.5 µM / activity at 43.8 µM / activity at 93.5 µM / activity at 200 µM: read-out: Percent of Control Activity; for activity at 0.214 µM: pH 7.4, CYP 2B6, 0.214 µM; for activity at 0.979 µM: pH 7.4, CYP 2B6, 0.979 µM; for activity at 2.09 µM: pH 7.4, CYP 2B6, 2.09 µM; for activity at 4.48 µM: pH 7.4, CYP 2B6, 4.48 µM; for activity at 20.5 µM: pH 7.4, CYP 2B6, 20.5 µM; for activity at 43.8 µM: pH 7.4, CYP 2B6, 43.8 µM; for activity at 93.5 µM: pH 7.4, CYP 2B6, 93.5 µM; for activity at 200 µM: pH 7.4, CYP 2B6, 200 µM
T1 sequence (P20813 1-491): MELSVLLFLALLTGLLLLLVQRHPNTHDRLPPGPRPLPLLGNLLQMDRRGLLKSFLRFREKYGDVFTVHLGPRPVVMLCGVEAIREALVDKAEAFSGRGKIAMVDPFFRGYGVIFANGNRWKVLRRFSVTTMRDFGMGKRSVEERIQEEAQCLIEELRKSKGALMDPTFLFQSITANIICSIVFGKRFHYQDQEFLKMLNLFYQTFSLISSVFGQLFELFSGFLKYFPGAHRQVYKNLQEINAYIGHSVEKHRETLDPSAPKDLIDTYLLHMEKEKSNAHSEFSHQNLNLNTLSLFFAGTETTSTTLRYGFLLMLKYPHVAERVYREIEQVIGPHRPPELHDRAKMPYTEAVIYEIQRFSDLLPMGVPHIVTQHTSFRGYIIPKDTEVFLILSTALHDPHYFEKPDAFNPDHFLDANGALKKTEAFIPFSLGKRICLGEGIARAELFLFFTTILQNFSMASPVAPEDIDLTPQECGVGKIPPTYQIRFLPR

[1] = LogD shake-flask measurement at pH 7.4; conditions: 1-octanol/0.1 M sodium phosphate buffer
[2] = Metabolic stability in pooled human liver microsomes (intrinsic clearance); conditions: both, pH 7.5
[3] = human, human liver microsomes, 30-Minute Preincubation
[4] = human, human liver microsomes, Zero-Minute Preincubation

IBV-CoV 3CL^pro, sequence (P0C6Y1 2780-3086): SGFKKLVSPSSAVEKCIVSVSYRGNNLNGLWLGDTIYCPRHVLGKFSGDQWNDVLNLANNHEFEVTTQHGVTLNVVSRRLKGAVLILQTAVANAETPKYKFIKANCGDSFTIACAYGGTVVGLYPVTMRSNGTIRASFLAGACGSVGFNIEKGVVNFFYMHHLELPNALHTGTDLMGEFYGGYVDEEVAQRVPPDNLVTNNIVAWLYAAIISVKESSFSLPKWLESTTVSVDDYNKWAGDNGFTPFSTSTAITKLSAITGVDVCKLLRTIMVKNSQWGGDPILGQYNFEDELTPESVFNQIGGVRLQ
HKU5-CoV 3CL^pro, sequence (P0C6W4 3339-3644 limits assumed): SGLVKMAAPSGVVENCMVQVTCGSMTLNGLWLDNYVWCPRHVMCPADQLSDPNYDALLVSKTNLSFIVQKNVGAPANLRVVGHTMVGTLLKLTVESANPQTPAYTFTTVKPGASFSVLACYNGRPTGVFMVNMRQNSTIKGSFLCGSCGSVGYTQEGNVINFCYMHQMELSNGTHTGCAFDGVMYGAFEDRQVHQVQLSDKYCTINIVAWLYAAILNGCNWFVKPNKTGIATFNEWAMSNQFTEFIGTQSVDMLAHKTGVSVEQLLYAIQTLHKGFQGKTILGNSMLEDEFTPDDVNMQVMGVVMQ
NL63-CoV 3CL^pro, sequence (P0C6X5 2940-3242): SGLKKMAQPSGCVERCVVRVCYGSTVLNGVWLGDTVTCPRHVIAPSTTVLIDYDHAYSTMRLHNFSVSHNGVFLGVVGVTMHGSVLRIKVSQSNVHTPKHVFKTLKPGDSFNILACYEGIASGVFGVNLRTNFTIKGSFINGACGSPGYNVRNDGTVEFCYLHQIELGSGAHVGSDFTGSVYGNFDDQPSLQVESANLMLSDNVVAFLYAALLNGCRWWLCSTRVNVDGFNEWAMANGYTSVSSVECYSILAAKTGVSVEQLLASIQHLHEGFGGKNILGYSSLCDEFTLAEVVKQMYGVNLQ
MHV-CoV 3CL^pro, sequence (P0C6X9 3334-3635): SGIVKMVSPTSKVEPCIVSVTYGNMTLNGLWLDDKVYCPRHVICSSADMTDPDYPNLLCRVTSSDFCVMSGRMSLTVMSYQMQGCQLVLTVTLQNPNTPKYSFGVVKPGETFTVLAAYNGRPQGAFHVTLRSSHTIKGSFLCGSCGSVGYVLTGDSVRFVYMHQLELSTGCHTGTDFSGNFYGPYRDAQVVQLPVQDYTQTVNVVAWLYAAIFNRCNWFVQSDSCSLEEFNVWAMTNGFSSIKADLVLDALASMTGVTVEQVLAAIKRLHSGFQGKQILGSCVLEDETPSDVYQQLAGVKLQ
OC43-CoV 3CL^pro, sequence (P0C6X6 3247-3549): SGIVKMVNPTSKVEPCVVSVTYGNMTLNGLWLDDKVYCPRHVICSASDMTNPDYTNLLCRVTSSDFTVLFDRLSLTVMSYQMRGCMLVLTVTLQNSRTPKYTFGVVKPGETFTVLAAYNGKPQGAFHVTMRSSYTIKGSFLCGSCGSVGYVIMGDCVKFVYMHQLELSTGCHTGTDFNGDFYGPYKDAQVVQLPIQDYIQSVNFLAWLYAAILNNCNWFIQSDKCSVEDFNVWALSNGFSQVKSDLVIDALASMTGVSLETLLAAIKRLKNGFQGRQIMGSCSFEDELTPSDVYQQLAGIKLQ

## COc1cccc2[nH]c(C(=O)N[C@@H](CC(C)C)C(=O)N[C@@H](C[C@@H]3CCNC3=O)C(=O)CO)cc12 [PF-00835231]
NL63-CoV 3CL^pro
  Ki: 0.77 ± 0.52 nM
HKU5-CoV 3CL^pro; [Compound F2] 1.95312 nM
  Initial Velocity: 0.9802 and 1.028 and 0.9544
HKU5-CoV 3CL^pro; [Compound F2] 3.90625 nM
  Initial Velocity: 0.9722 and 0.992 and 0.9888
HKU5-CoV 3CL^pro; [Compound F2] 7.8125 nM
  Initial Velocity: 0.8869 and 0.9497 and 0.9402
HKU5-CoV 3CL^pro; [Compound F2] 20 nM
  Initial Velocity: 0.7838 and 0.8106 and 0.827
HKU5-CoV 3CL^pro; [Compound F2] 30 nM
  Initial Velocity: 0.6911 and 0.6076 and 0.6927
HKU5-CoV 3CL^pro; [Compound F2] 31.25 nM
  Initial Velocity: 0.6277 and 0.6613 and 0.6251
HKU5-CoV 3CL^pro; [Compound F2] 40 nM
  Initial Velocity: 0.5119 and 0.5104 and 0.5524
HKU5-CoV 3CL^pro; [Compound F2] 50 nM
  Initial Velocity: 0.32 and 0.3287 and 0.3636
HKU5-CoV 3CL^pro; [Compound F2] 62.5 nM
  Initial Velocity: 0.1843 and 0.2599 and 0.2229
HKU5-CoV 3CL^pro; [Compound F2] 80 nM
  Initial Velocity: 0.01707 and 0.01468 and 0.01576
HKU5-CoV 3CL^pro; [Compound F2] 100 nM
  Initial Velocity: 0.01024 and 0.007665 and 0.009516
HKU5-CoV 3CL^pro; [Compound F2] 200 nM
  Initial Velocity: 0.003343 and 0.002684 and 0.002549
HKU5-CoV 3CL^pro; [Compound F2] 300 nM
  Initial Velocity: 0.000987 and 0.001807 and 0.00196
HKU5-CoV 3CL^pro; [Compound F2] 400 nM
  Initial Velocity: 0.002007 and 0.00134 and 0.002594
HKU5-CoV 3CL^pro; mean ± SEM
  Ki: 0.033 nM
MHV-CoV 3CL^pro
  Ki: 1.2 ± 0.9 nM
OC43-CoV 3CL^pro
  Ki: 0.51 ± 0.12 nM
IBV-CoV 3CL^pro
  Ki: 4 ± 0.37 nM
IBV-CoV 3CL^pro; [Compound F2] 1.95312 nM
  Initial Velocity: 0.9151 and 0.9223 and 0.9303
IBV-CoV 3CL^pro; [Compound F2] 3.90625 nM
  Initial Velocity: 0.8719 and 0.9093 and 0.9026
IBV-CoV 3CL^pro; [Compound F2] 7.8125 nM
  Initial Velocity: 0.7237 and 0.7704 and 0.7494
IBV-CoV 3CL^pro; [Compound F2] 31.25 nM
  Initial Velocity: 0.2801 and 0.2824 and 0.2905
IBV-CoV 3CL^pro; [Compound F2] 62.5 nM
  Initial Velocity: 0.09406 and 0.0968 and 0.1078
IBV-CoV 3CL^pro; [Compound F2] 250 nM
  Initial Velocity: 0.02135 and 0.01561 and 0.01396
SARS-CoV-2
  EC50: 60 ± 30 nM
CYP2B6; CYP 2B6, 0.1 µM, 30-Minute Preincubation, 0.1 µM
  Percent of Control Activity: 95.8%
CYP2B6; CYP 2B6, 0.1 µM, Zero-Minute Preincubation, 0.1 µM
  Percent of Control Activity: 102.2% and 99.6%
CYP2B6; CYP 2B6, 0.214 µM, 30-Minute Preincubation, 0.214 µM
  Percent of Control Activity: 99.2% and 94.6%
CYP2B6; CYP 2B6, 0.214 µM, Zero-Minute Preincubation, 0.214 µM
  Percent of Control Activity: 97.5% and 98.9%
CYP2B6; CYP 2B6, 0.979 µM, 30-Minute Preincubation, 0.979 µM
  Percent of Control Activity: 92.8% and 97.7%
CYP2B6; CYP 2B6, 0.979 µM, Zero-Minute Preincubation, 0.979 µM
  Percent of Control Activity: 99.5% and 102.1%
CYP2B6; CYP 2B6, 2.09 µM, Zero-Minute Preincubation, 2.09 µM
  Percent of Control Activity: 101.6%
CYP2B6; CYP 2B6, 4.48 µM, 30-Minute Preincubation, 4.48 µM
  Percent of Control Activity: 102.3% and 98.3%
CYP2B6; CYP 2B6, 4.48 µM, Zero-Minute Preincubation, 4.48 µM
  Percent of Control Activity: 96.6%
CYP2B6; CYP 2B6, 20.5 µM, 30-Minute Preincubation, 20.5 µM
  Percent of Control Activity: 88.5% and 89.3%
CYP2B6; CYP 2B6, 20.5 µM, Zero-Minute Preincubation, 20.5 µM
  Percent of Control Activity: 90.2% and 87.9%
CYP2B6; CYP 2B6, 43.8 µM, 30-Minute Preincubation, 43.8 µM
  Percent of Control Activity: 89.3% and 86.6%
CYP2B6; CYP 2B6, 43.8 µM, Zero-Minute Preincubation, 43.8 µM
  Percent of Control Activity: 84.2% and 79.6%
CYP2B6; CYP 2B6, 93.5 µM, 30-Minute Preincubation, 93.5 µM
  Percent of Control Activity: 69.4% and 77.3%
CYP2B6; CYP 2B6, 93.5 µM, Zero-Minute Preincubation, 93.5 µM
  Percent of Control Activity: 73.2% and 72.0%
CYP2B6; CYP 2B6, 200 µM, 30-Minute Preincubation, 200 µM
  Percent of Control Activity: 59.5% and 60.0%
CYP2B6; CYP 2B6, 200 µM, Zero-Minute Preincubation, 200 µM
  Percent of Control Activity: 54.6% and 55.4%
CYP2B6; [3]
  activity at 0.1 µM: 102%
  activity at 0.214 µM: 103%
  activity at 0.979 µM: 100%
  activity at 2.09 µM: 101%
  activity at 4.48 µM: 103%
  activity at 20.5 µM: 91.3%
  activity at 43.8 µM: 87.1%
  activity at 93.5 µM: 73.5%
  activity at 200 µM: 59%
CYP2B6; [4]
  activity at 0.1 µM: 104%
  activity at 0.214 µM: 103%
  activity at 0.979 µM: 105%
  activity at 2.09 µM: 105%
  activity at 4.48 µM: 100%
  activity at 20.5 µM: 91.9%
  activity at 43.8 µM: 86.4%
  activity at 93.5 µM: 73.7%
  activity at 200 µM: 55.5%
CYP2B6; human, human liver microsomes, pH 7.4, probe bupropion (hydroxylation), at approximately KM
  IC50: > 200000 nM
In vitro; African green monkey, CC50
  CC50: > 100000 nM
In vitro; monkey, CC50 GeoMean (95% CI)
  CC50: > 100000 nM
[1]
  logD at 1 h: 1.7
[2]; liver microsomes
  microsomal CLint at 1 µM: 14 µL/min/mg
[2]; pooled human liver microsomes
  microsomal CLint at 1 µM: 7.5 µL/min/mg

Reference: PMC8523698, “Preclinical characterization of an intravenous coronavirus 3CL protease inhibitor for the potential treatment of COVID19” (Nature Communications, 2021)
